{
  "source": "ChEMBL document CHEMBL1153162",
  "about": "“Total synthesis and biological evaluation of methylgerambullone” (2010)",
  "conditions_in_all_cases": "Cavia porcellus",
  "key": {"Ileum [1]": {"tested_on": "Ileum", "test": "[…] activity in longitudinal smooth muscle of guinea pig ileum assessed as inhibition of acetylcholine-induced contraction at 100 mg/L", "assay_type": "functional"}, "Ileum [2]": {"tested_on": "Ileum", "test": "[…] activity in longitudinal smooth muscle of guinea pig ileum assessed as inhibition of acetylcholine-induced contraction at 30 mg/L", "assay_type": "functional"}, "Ileum [3]": {"tested_on": "Ileum", "test": "[…] activity in longitudinal smooth muscle of guinea pig ileum assessed as inhibition of acetylcholine-induced contraction at 60 mg/L", "assay_type": "functional"}, "Ileum [4]": {"tested_on": "Ileum", "test": "[…] activity in longitudinal smooth muscle of guinea pig ileum assessed as inhibition of acetylcholine-induced contraction", "assay_type": "functional, tissue-based"}},
  "data": [
    {"compound": "CC(C)=CC(=O)C/C(C)=C/COc1ccc(CCN(C)C(=O)/C=C/S(C)(=O)=O)cc1", "note": "[METHYLGERAMBULLONE]", "values": [
      {"measurement": "inhibition at 100 µg/mL", "setting": "Ileum [1]", "value": 78.7, "unit": "%"},
      {"measurement": "inhibition at 30 µg/mL", "setting": "Ileum [2]", "value": 45.3, "unit": "%"},
      {"measurement": "inhibition at 60 µg/mL", "setting": "Ileum [3]", "value": 70, "unit": "%"},
      {"measurement": "Activity", "setting": "Ileum [4]", "value": "Dose-dependent effect"}
    ]}
  ]
}
